Laboratory results: patent publication US12252524B2, “GIP/GLP1 co-agonist compounds” (Eli Lilly and Company, priority 2018, dated 2025)
Numbered stars: 1 amine (or outer) side, 2 acyl side, 3 side chain; on linkers, the order of the positions; unused ones are H or OH. Square brackets hold non-standard residues; d marks the D form. Side chains are listed from the residue outwards. Peptide text beside a SMILES is read from it. * marks the point of attachment. C18 diacid = O=C(O)CCCCCCCCCCCCCCCCC(=O)*; αMePhe(2-F) = C[C@](N)(Cc1ccccc1F)C(=O)O; γGlu = O=C(O)[C@H](CCC(=O)[*:2])N[*:1]; αMeY = C[C@](N)(Cc1ccc(O)cc1)C(=O)O; 4Pal = N[C@@H](Cc1ccncc1)C(=O)O; αMeL = CC(C)C[C@](C)(N)C(=O)O; Orn = NCCC[C@H](N)C(=O)O; AEEA = NCCOCCOCC(=O)O; Aib = CC(C)(N)C(=O)O

Columns and labels:
[1] = molecular target: human GLP-1 receptor (GLP-1R) (Homo sapiens, UniProt P43220); experiment: cAMP pharmacological functional assay in presence of casein, hGLP-1R; assay type: cell-based; details: HEK293 cells expressing hGLP-1R, 0.1% Casein, geometric mean; read-out: hGLP1R cAMP Rel EC50 nM (SEM, n)
Chain of human GLP-1 receptor (GLP-1R) (P43220 24-463): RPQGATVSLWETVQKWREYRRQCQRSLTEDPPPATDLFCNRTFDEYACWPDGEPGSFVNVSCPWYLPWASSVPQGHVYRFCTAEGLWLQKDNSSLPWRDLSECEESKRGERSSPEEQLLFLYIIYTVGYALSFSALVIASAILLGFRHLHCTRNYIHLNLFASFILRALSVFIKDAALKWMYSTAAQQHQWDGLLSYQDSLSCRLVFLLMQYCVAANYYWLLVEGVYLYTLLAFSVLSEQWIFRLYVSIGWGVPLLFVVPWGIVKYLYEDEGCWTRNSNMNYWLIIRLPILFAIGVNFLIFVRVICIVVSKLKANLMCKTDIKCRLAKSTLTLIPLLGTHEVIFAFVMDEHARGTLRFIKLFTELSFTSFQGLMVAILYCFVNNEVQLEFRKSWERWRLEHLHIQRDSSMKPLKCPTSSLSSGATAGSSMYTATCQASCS

[2] = molecular target: T1, human GIP receptor (Homo sapiens, UniProt P48546); experiment: [125I]-GIP binding (SPA), human GIP receptor; details: read-out: hGIPR Ki, nM (SEM, n)
T1 construct: expressed in transfected cells; crude membranes
T1 sequence (P48546 22-466): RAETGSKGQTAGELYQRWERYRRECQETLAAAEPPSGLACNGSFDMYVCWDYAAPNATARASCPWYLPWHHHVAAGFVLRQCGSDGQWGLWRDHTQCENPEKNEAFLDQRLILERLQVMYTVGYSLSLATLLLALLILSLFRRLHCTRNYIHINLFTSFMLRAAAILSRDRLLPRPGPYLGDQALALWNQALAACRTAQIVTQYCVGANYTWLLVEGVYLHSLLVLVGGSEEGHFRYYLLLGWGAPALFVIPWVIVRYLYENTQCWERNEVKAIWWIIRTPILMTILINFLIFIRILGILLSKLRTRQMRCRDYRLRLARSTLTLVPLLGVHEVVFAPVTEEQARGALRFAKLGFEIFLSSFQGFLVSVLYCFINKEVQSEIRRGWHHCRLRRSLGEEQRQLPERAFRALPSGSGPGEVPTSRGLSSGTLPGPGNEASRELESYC

[3] = molecular target: human GLP-1R (Homo sapiens, UniProt P43220); experiment: [125I]-GLP-1 binding (SPA), human GLP-1 receptor; parameters: expressed in transfected cells; crude membranes; details: read-out: hGLP1R Ki, (nM) (SEM, n)
Chain of human GLP-1R (P43220 24-463): as the sequence (P43220 24-463) above
Method in brief: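 Crude-membrane binding assay; one membrane prep included 1 mM MgCl2 and 25 units/ml DNAse I during lysis. Assay buffer at pH 7.4 contains 0.1% (w/v) bacitracin and 0.003% (w/v) TWEEN-20. Ki is reported as geometric mean.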

[4] = molecular target: T2, human Gcg receptor (Homo sapiens, UniProt P47871); experiment: [125I]-Glucagon binding (SPA), human Gcg receptor; details: read-out: hGLcgR Ki, nM (SEM, n)
T2 construct: expressed in transfected cells; crude membranes
T2 sequence (P47871 26-477): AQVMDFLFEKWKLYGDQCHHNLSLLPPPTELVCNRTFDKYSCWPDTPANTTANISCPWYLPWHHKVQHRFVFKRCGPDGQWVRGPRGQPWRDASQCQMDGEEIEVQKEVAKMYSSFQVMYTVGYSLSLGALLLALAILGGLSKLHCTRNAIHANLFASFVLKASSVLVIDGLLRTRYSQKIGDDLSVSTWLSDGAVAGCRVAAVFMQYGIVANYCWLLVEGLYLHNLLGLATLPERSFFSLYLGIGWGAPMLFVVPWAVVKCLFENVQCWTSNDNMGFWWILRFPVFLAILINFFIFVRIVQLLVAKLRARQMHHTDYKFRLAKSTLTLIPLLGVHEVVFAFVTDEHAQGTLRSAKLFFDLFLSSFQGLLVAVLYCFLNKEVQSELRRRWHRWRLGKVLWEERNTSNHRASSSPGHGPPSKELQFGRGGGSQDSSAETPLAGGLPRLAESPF
Method in brief: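 Scintillation counts are taken after membranes and WGA beads incubate and settle for 12 hours at room temperature. Buffer is 25 mM HEPES, pH 7.4, with CaCl2, MgCl2, bacitracin and Tween-20. Ki values, from four-parameter IC50 fits, are geometric means over independent days.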

[5] = molecular target: T3, gastric inhibitory peptide receptor (GIPR) (Homo sapiens, UniProt P48546); experiment: cAMP pharmacological functional assay in presence of casein, hGIPR; assay type: cell-based; details: HEK293 cells expressing hGIPR, 0.1% Casein, geometric mean; read-out: hGIPR cAMP Rel EC50 nM (SEM, n)
T3 sequence (P48546 22-466): T1 sequence (P48546 22-466)

Structure (SMILES) | EC50 [1] [nM] | Ki [2] [nM] | Ki [3] [nM] | Ki [4] [nM] | EC50 [5] [nM]
CC[C@H](C)[C@H](NC(=O)[C@H](CC(C)C)NC(=O)[C@](C)(Cc1ccc(O)cc1)NC(=O)[C@@H](CCC(=O)O)NC(=O)[C@@H](NC(=O)[C@H](Cc1ccccc1)NC(=O)[C@H](C)NC(=O)C(C)(C)NC(=O)[C@H](CCC(N)=O)NC(=O)[C@H](C)NC(=O)[C@H](CCCCNC(=O)COCCOCCNC(=O)COCCOCCNC(=O)CC[C@H](NC(=O)CCCCCCCCCCCCCCCCC(=O)O)C(=O)O)NC(=O)[C@H](CCCN)NC(=O)[C@H](CC(=O)O)NC(=O)[C@H](CC(C)C)NC(=O)[C@](C)(CC(C)C)NC(=O)[C@@H](NC(=O)[C@H](CO)NC(=O)[C@H](Cc1ccncc1)NC(=O)[C@H](CC(=O)O)NC(=O)[C@H](CO)NC(=O)[C@@H](NC(=O)[C@](C)(Cc1ccccc1F)NC(=O)[C@@H](NC(=O)CNC(=O)[C@H](CCC(=O)O)NC(=O)C(C)(C)NC(=O)[C@@H](N)Cc1ccc(O)cc1)[C@@H](C)O)[C@@H](C)O)[C@@H](C)CC)[C@@H](C)CC)C(=O)N[C@@H](CCC(=O)O)C(=O)NCC(=O)NCC(=O)N1CCC[C@H]1C(=O)N[C@@H](CO)C(=O)N[C@@H](CO)C(=O)NCC(=O)N[C@@H](C)C(=O)N1CCC[C@H]1C(=O)N1CCC[C@H]1C(=O)N1CCC[C@H]1C(=O)N[C@@H](CO)C(N)=O [Example 240] (H-Y[Aib]EGT[αMePhe(2-F)]TSD[4Pal]SI[αMeL]LD[Orn]K([AEEA-AEEA-γGlu-C18 diacid])AQ[Aib]AFI[dE][αMeY]LIEGGPSSGAPPPS-NH2) | 0.0393 | 0.0284 | 0.552 | 204 | 0.0223
CC[C@H](C)[C@H](NC(=O)[C@H](CC(C)C)NC(=O)[C@](C)(Cc1ccc(O)cc1)NC(=O)[C@@H](CCC(=O)O)NC(=O)[C@@H](NC(=O)[C@H](Cc1ccccc1)NC(=O)[C@@H](NC(=O)C(C)(C)NC(=O)[C@H](CCC(N)=O)NC(=O)[C@H](C)NC(=O)[C@H](CCCCNC(=O)COCCOCCNC(=O)COCCOCCNC(=O)CC[C@H](NC(=O)CCCCCCCCCCCCCCCCC(=O)O)C(=O)O)NC(=O)[C@H](CCCN)NC(=O)[C@H](CC(=O)O)NC(=O)[C@H](CC(C)C)NC(=O)[C@](C)(CC(C)C)NC(=O)[C@@H](NC(=O)[C@H](CO)NC(=O)[C@@H](NC(=O)[C@H](CC(=O)O)NC(=O)[C@H](CO)NC(=O)[C@@H](NC(=O)[C@](C)(Cc1ccccc1F)NC(=O)[C@@H](NC(=O)CNC(=O)[C@H](CCC(=O)O)NC(=O)C(C)(C)NC(=O)[C@@H](N)Cc1ccc(O)cc1)[C@@H](C)O)[C@@H](C)O)C(C)C)[C@@H](C)CC)[C@@H](C)O)[C@@H](C)CC)C(=O)N[C@@H](CCC(=O)O)C(=O)NCC(=O)NCC(=O)N1CCC[C@H]1C(=O)N[C@@H](CO)C(=O)N[C@@H](CO)C(=O)NCC(=O)N[C@@H](C)C(=O)N1CCC[C@H]1C(=O)N1CCC[C@H]1C(=O)N1CCC[C@H]1C(=O)N[C@@H](CO)C(N)=O [Example 241] (H-Y[Aib]EGT[αMePhe(2-F)]TSDVSI[αMeL]LD[Orn]K([AEEA-AEEA-γGlu-C18 diacid])AQ[Aib]TFI[dE][αMeY]LIEGGPSSGAPPPS-NH2; N-terminus assumed) | 0.0175 | 0.042 | 0.799 | 167 | 0.0257
CC[C@H](C)[C@H](NC(=O)[C@H](CC(C)C)NC(=O)[C@](C)(Cc1ccc(O)cc1)NC(=O)[C@@H](CCC(=O)O)NC(=O)[C@@H](NC(=O)[C@H](Cc1ccccc1)NC(=O)[C@H](C)NC(=O)C(C)(C)NC(=O)[C@H](CCC(N)=O)NC(=O)[C@H](C)NC(=O)[C@H](CCCCNC(=O)COCCOCCNC(=O)COCCOCCNC(=O)CC[C@H](NC(=O)CCCCCCCCCCCCCCCCC(=O)O)C(=O)O)NC(=O)[C@H](CCCN)NC(=O)[C@H](CC(=O)O)NC(=O)[C@H](CC(C)C)NC(=O)[C@](C)(CC(C)C)NC(=O)[C@@H](NC(=O)[C@H](CO)NC(=O)[C@@H](NC(=O)[C@H](CC(=O)O)NC(=O)[C@H](CO)NC(=O)[C@@H](NC(=O)[C@](C)(Cc1ccccc1F)NC(=O)[C@@H](NC(=O)CNC(=O)[C@H](CCC(=O)O)NC(=O)C(C)(C)NC(=O)[C@@H](N)Cc1ccc(O)cc1)[C@@H](C)O)[C@@H](C)O)C(C)C)[C@@H](C)CC)[C@@H](C)CC)C(=O)N[C@@H](CCC(=O)O)C(=O)NCC(=O)NCC(=O)N1CCC[C@H]1C(=O)N[C@@H](CO)C(=O)N[C@@H](CO)C(=O)NCC(=O)N[C@@H](C)C(=O)N1CCC[C@H]1C(=O)N1CCC[C@H]1C(=O)N1CCC[C@H]1C(=O)N[C@@H](CO)C(N)=O [Example 242] (H-Y[Aib]EGT[αMePhe(2-F)]TSDVSI[αMeL]LD[Orn]K([AEEA-AEEA-γGlu-C18 diacid])AQ[Aib]AFI[dE][αMeY]LIEGGPSSGAPPPS-NH2) | 0.0164 | 0.0604 | 0.853 | 95.9 | 0.0333
CC[C@H](C)[C@H](NC(=O)[C@H](CC(C)C)NC(=O)[C@](C)(Cc1ccc(O)cc1)NC(=O)[C@@H](CCC(=O)O)NC(=O)[C@@H](NC(=O)[C@H](Cc1ccccc1)NC(=O)[C@@H](NC(=O)C(C)(C)NC(=O)[C@H](CCC(N)=O)NC(=O)[C@H](C)NC(=O)[C@H](CCCCNC(=O)COCCOCCNC(=O)COCCOCCNC(=O)CC[C@H](NC(=O)CCCCCCCCCCCCCCCCC(=O)O)C(=O)O)NC(=O)[C@H](CCCN)NC(=O)[C@H](CC(=O)O)NC(=O)[C@H](CC(C)C)NC(=O)[C@](C)(CC(C)C)NC(=O)[C@@H](NC(=O)[C@H](CO)NC(=O)[C@H](CC(C)C)NC(=O)[C@H](CC(=O)O)NC(=O)[C@H](CO)NC(=O)[C@@H](NC(=O)[C@](C)(Cc1ccccc1F)NC(=O)[C@@H](NC(=O)CNC(=O)[C@H](CCC(=O)O)NC(=O)C(C)(C)NC(=O)[C@@H](N)Cc1ccc(O)cc1)[C@@H](C)O)[C@@H](C)O)[C@@H](C)CC)[C@@H](C)O)[C@@H](C)CC)C(=O)N[C@@H](CCC(=O)O)C(=O)NCC(=O)NCC(=O)N1CCC[C@H]1C(=O)N[C@@H](CO)C(=O)N[C@@H](CO)C(=O)NCC(=O)N[C@@H](C)C(=O)N1CCC[C@H]1C(=O)N1CCC[C@H]1C(=O)N1CCC[C@H]1C(=O)N[C@@H](CO)C(N)=O [Example 243] (H-Y[Aib]EGT[αMePhe(2-F)]TSDLSI[αMeL]LD[Orn]K([AEEA-AEEA-γGlu-C18 diacid])AQ[Aib]TFI[dE][αMeY]LIEGGPSSGAPPPS-NH2) | 0.0265 | 0.0325 | 0.67 | 145 | 0.0214
CC[C@H](C)[C@H](NC(=O)[C@H](CC(C)C)NC(=O)[C@](C)(Cc1ccc(O)cc1)NC(=O)[C@@H](CCC(=O)O)NC(=O)[C@@H](NC(=O)[C@H](Cc1ccccc1)NC(=O)[C@H](C)NC(=O)C(C)(C)NC(=O)[C@H](CCC(N)=O)NC(=O)[C@H](C)NC(=O)[C@H](CCCCNC(=O)COCCOCCNC(=O)COCCOCCNC(=O)CC[C@H](NC(=O)CCCCCCCCCCCCCCCCC(=O)O)C(=O)O)NC(=O)[C@H](CCCN)NC(=O)[C@H](CC(=O)O)NC(=O)[C@H](CC(C)C)NC(=O)[C@](C)(CC(C)C)NC(=O)[C@@H](NC(=O)[C@H](CO)NC(=O)[C@H](CC(C)C)NC(=O)[C@H](CC(=O)O)NC(=O)[C@H](CO)NC(=O)[C@@H](NC(=O)[C@](C)(Cc1ccccc1F)NC(=O)[C@@H](NC(=O)CNC(=O)[C@H](CCC(=O)O)NC(=O)C(C)(C)NC(=O)[C@@H](N)Cc1ccc(O)cc1)[C@@H](C)O)[C@@H](C)O)[C@@H](C)CC)[C@@H](C)CC)C(=O)N[C@@H](CCC(=O)O)C(=O)NCC(=O)NCC(=O)N1CCC[C@H]1C(=O)N[C@@H](CO)C(=O)N[C@@H](CO)C(=O)NCC(=O)N[C@@H](C)C(=O)N1CCC[C@H]1C(=O)N1CCC[C@H]1C(=O)N1CCC[C@H]1C(=O)N[C@@H](CO)C(N)=O [Example 244] (H-Y[Aib]EGT[αMePhe(2-F)]TSDLSI[αMeL]LD[Orn]K([AEEA-AEEA-γGlu-C18 diacid])AQ[Aib]AFI[dE][αMeY]LIEGGPSSGAPPPS-NH2) | 0.0252 | 0.0308 | 0.82 | 87.8 | 0.0225
